{"source": "ChEMBL document CHEMBL4421722", "about": "“Inhibitors of protein prenyltransferases” (2013)"}
{"organism": "Rattus norvegicus", "experiment": "Inhibition of rat recombinant geranylgeranyltransferase type I expressed in Escherichia coli assessed as residual enzyme activity for geranylgeranylation of K-Ras4B at 50 uM incubated for 30 mins in presence of [3H]GGPP by scintillation counting assay relative to control", "units": {"Activity": "%"}}
{"molecule": "Cc1ccc(S(=O)(=O)N2[C@@H](c3cccc(Br)c3)C(C(=O)O)=CC[C@H]2c2ccc3c(c2)OCO3)cc1", "Activity": 75.1}
{"molecule": "CCS[C@@H]1C[C@@H](c2ccc(OC)cc2)N(S(=O)(=O)c2ccc(Cl)cc2)C[C@H]1C(=O)O", "Activity": 72.9}
{"molecule": "Cc1ccc([C@@H]2CC=C(C(=O)O)[C@H](c3ccc(Cl)cc3)N2S(=O)(=O)c2ccccc2C)cc1", "Activity": 86.8}
{"molecule": "CCCS[C@@H]1C[C@@H](c2ccc(C)cc2)N(S(=O)(=O)c2ccccc2)C[C@H]1C(=O)O", "Activity": 100}
{"molecule": "Cc1ccc([C@@H]2CC=C(C(=O)O)[C@H](c3cccc(F)c3)N2S(=O)(=O)c2ccc(C)cc2)cc1", "Activity": 77.3}
{"molecule": "CCOc1ccc([C@@H]2C[C@@H](SCC)[C@H](C(=O)O)CN2S(=O)(=O)c2ccc(C)cc2)cc1", "Activity": 87.1}
{"molecule": "Cc1ccc([C@@H]2C[C@@H](SCC(C)C)[C@H](C(=O)O)CN2S(=O)(=O)c2ccc(C)cc2)cc1", "Activity": 83.5}
{"molecule": "CCc1ccc([C@@H]2C[C@@H](SCC(C)C)[C@H](C(=O)O)CN2S(=O)(=O)c2ccc(C)cc2)cc1", "Activity": 68.5}
{"molecule": "Cc1ccc(S(=O)(=O)N2[C@@H](c3cccc(Br)c3)C(C(=O)O)=CC[C@H]2c2cccc(F)c2)cc1", "Activity": 67.1}
{"molecule": "Cc1ccc([C@@H]2C[C@@H](SCCC(C)C)[C@H](C(=O)O)CN2S(=O)(=O)c2ccc(C)cc2)cc1", "Activity": 92.9}
{"molecule": "COc1ccc([C@@H]2CC=C(C(=O)O)[C@H](c3ccc(F)cc3)N2S(=O)(=O)c2ccc(C)cc2)cc1", "Activity": 72.9}
{"molecule": "COc1ccc([C@@H]2CC=C(C(=O)O)[C@H](c3cccc(Br)c3)N2S(=O)(=O)c2ccccc2C)cc1", "Activity": 51.9}
{"molecule": "COc1ccc([C@@H]2C[C@@H](Sc3ccc(C)cc3)[C@H](C(=O)O)CN2S(=O)(=O)c2ccc(C)cc2)cc1", "Activity": 91.8}
{"molecule": "CCCS[C@@H]1C[C@@H](c2ccc(Cl)cc2)N(S(=O)(=O)c2ccc(C)cc2)C[C@H]1C(=O)O", "Activity": 71}
{"molecule": "CCCS[C@@H]1C[C@@H](c2cccc(Br)c2)N(S(=O)(=O)c2ccc(C)cc2)C[C@H]1C(=O)O", "Activity": 88.5}
{"molecule": "CCCCS[C@@H]1C[C@@H](c2ccc(Cl)cc2)N(S(=O)(=O)c2ccc(C)cc2)C[C@H]1C(=O)O", "Activity": 81.5}
{"molecule": "Cc1ccc([C@@H]2CC=C(C(=O)O)[C@H](c3ccc(Br)cc3)N2S(=O)(=O)c2ccc(Cl)cc2)cc1", "Activity": 69.5}
{"molecule": "COC(=O)c1ccccc1S(=O)(=O)N1[C@@H](c2cccc(Br)c2)C(C(=O)O)=CC[C@H]1c1ccc(C)cc1", "Activity": 64.9}
{"molecule": "Cc1ccc(S(=O)(=O)N2[C@@H](c3ccc(Cl)cc3)C(C(=O)O)=CC[C@H]2c2cccc(Br)c2)cc1", "Activity": 68.1}
{"molecule": "Cc1ccc(S(=O)(=O)N2[C@@H](c3cccc(Br)c3)C(C(=O)O)=CC[C@H]2c2ccc(C#N)cc2)cc1", "Activity": 93.5}
{"molecule": "CCCCS[C@@H]1C[C@@H](c2ccc(OC)cc2)N(S(=O)(=O)c2ccccc2)C[C@H]1C(=O)O", "Activity": 83.1}
{"molecule": "Cc1ccc([C@H]2C(C(=O)O)=CC[C@@H](c3ccccc3)N2S(=O)(=O)c2ccc(C)cc2)cc1", "Activity": 87.5}
{"molecule": "COC(=O)c1ccccc1S(=O)(=O)N1[C@@H](c2ccc(Br)cc2)C(C(=O)O)=CC[C@H]1c1ccc(C)cc1", "Activity": 77.4}
{"molecule": "Cc1ccc(S(=O)(=O)N2[C@@H](c3ccc(Br)cc3)C(C(=O)O)=CC[C@H]2c2cccc(F)c2)cc1", "Activity": 60.8}
{"molecule": "Cc1ccc([C@@H]2CC=C(C(=O)O)[C@H](c3ccc(F)cc3)N2S(=O)(=O)c2ccc(Cl)cc2)cc1", "Activity": 60}
{"molecule": "COc1ccc([C@@H]2CC=C(C(=O)O)[C@H](c3ccc(C)cc3)N2S(=O)(=O)c2ccc(C)cc2)cc1OC", "Activity": 89.3}
{"molecule": "CCS[C@@H]1C[C@@H](c2ccc(C)cc2)N(S(C)(=O)=O)C[C@H]1C(=O)O", "Activity": 94.8}
{"molecule": "CCS[C@@H]1C[C@@H](c2ccc(OC)cc2)N(S(=O)(=O)c2ccc(C)cc2)C[C@H]1C(=O)O", "Activity": 96.3}
{"molecule": "Cc1ccc(S(=O)(=O)N2[C@@H](c3ccc(C(C)(C)C)cc3)C(C(=O)O)=CC[C@H]2c2cccc(Cl)c2)cc1", "Activity": 78.8}
{"molecule": "Cc1ccc([C@H]2C(C(=O)O)=CC[C@@H](c3ccc(F)cc3)N2S(=O)(=O)c2ccc(C)cc2)cc1", "Activity": 54.8}
{"molecule": "COc1ccc([C@@H]2CC=C(C(=O)O)[C@H](c3ccc(Br)cc3)N2S(=O)(=O)c2ccc(C)cc2)cc1", "Activity": 72.1}
{"molecule": "COc1ccc([C@@H]2C[C@@H](SCc3ccc(Cl)cc3)[C@H](C(=O)O)CN2S(=O)(=O)c2ccc(C)cc2)cc1OC", "Activity": 69.1}
{"molecule": "COc1ccc([C@@H]2C[C@@H](SCCC(C)C)[C@H](C(=O)O)CN2S(=O)(=O)c2ccc(C)cc2)cc1OC", "Activity": 91.1}
{"molecule": "COc1ccc(S[C@@H]2C[C@@H](c3ccc4c(c3)OCO4)N(S(=O)(=O)c3ccc(C)cc3)C[C@H]2C(=O)O)cc1", "Activity": 100}
{"molecule": "Cc1ccc([C@H]2C(C(=O)O)=CC[C@@H](c3ccc(C)cc3)N2S(=O)(=O)c2ccc(C)cc2)cc1", "Activity": 73.6}
{"molecule": "Cc1ccc(S(=O)(=O)N2[C@@H](c3cccc(Br)c3)C(C(=O)O)=CC[C@H]2c2cccc(C)c2)cc1", "Activity": 39.1}
{"molecule": "COC(=O)c1ccccc1S(=O)(=O)N1[C@@H](c2ccc(F)cc2)C(C(=O)O)=CC[C@H]1c1ccc(C)cc1", "Activity": 76.9}
{"molecule": "Cc1ccc([C@@H]2C[C@@H](SCc3ccccc3)[C@H](C(=O)O)CN2S(=O)(=O)c2ccc(Cl)cc2)cc1", "Activity": 40.3}
{"molecule": "Cc1ccc(S(=O)(=O)N2[C@@H](c3cccc(Cl)c3)C(C(=O)O)=CC[C@H]2c2ccccc2)cc1", "Activity": 71.3}
{"molecule": "Cc1ccc(S(=O)(=O)N2[C@@H](c3cccc(F)c3)C(C(=O)O)=CC[C@H]2c2cccc(Cl)c2)cc1", "Activity": 52.8}
{"molecule": "Cc1ccc(S(=O)(=O)N2[C@@H](c3cccc(F)c3)C(C(=O)O)=CC[C@H]2c2cccc(C)c2)cc1", "Activity": 75.6}
{"molecule": "Cc1ccc(S(=O)(=O)N2C[C@@H](C(=O)O)[C@H](SCc3ccc(C(C)(C)C)cc3)C[C@H]2c2ccccc2)cc1", "Activity": 55.9}
{"molecule": "COc1ccc(S[C@@H]2C[C@@H](c3ccc(OC)c(OC)c3)N(S(=O)(=O)c3ccc(C)cc3)C[C@H]2C(=O)O)cc1", "Activity": 101}
{"molecule": "Cc1ccc(S(=O)(=O)N2C[C@@H](C(=O)O)[C@H](SCC(C)C)C[C@H]2c2ccc3c(c2)OCO3)cc1", "Activity": 81.7}
{"molecule": "CCCS[C@@H]1C[C@@H](c2ccc(C)cc2)N(S(=O)(=O)c2ccccc2C)C[C@H]1C(=O)O", "Activity": 99.4}
{"molecule": "Cc1ccc([C@@H]2C[C@@H](SCCc3ccccc3)[C@H](C(=O)O)CN2S(C)(=O)=O)cc1", "Activity": 76.9}
{"molecule": "CCCS[C@@H]1C[C@@H](c2ccc3c(c2)OCO3)N(S(=O)(=O)c2ccc(C)cc2)C[C@H]1C(=O)O", "Activity": 83.6}
{"molecule": "COc1ccc([C@@H]2CC=C(C(=O)O)[C@H](c3cccc(Br)c3)N2S(=O)(=O)c2ccc(Cl)cc2)cc1", "Activity": 60.7}
{"molecule": "COc1ccc([C@@H]2CC=C(C(=O)O)[C@H](c3ccc(C)cc3)N2S(=O)(=O)c2ccc(C)cc2)cc1", "Activity": 73.8}
{"molecule": "CCS[C@@H]1C[C@@H](c2cccc(OC)c2)N(S(=O)(=O)c2ccc(C)cc2)C[C@H]1C(=O)O", "Activity": 84.8}
{"molecule": "Cc1ccc(S(=O)(=O)N2[C@@H](c3ccc(Br)cc3)C(C(=O)O)=CC[C@H]2c2ccc(C(C)C)cc2)cc1", "Activity": 83.7}
{"molecule": "CCCS[C@@H]1C[C@@H](c2ccc(C)cc2)N(S(C)(=O)=O)C[C@H]1C(=O)O", "Activity": 96.8}
{"molecule": "COc1ccc([C@@H]2C[C@@H](SCC(C)C)[C@H](C(=O)O)CN2S(=O)(=O)c2ccc(C)cc2)cc1", "Activity": 79.3}
{"molecule": "COc1ccc([C@@H]2C[C@@H](Sc3ccc(C)cc3)[C@H](C(=O)O)CN2S(=O)(=O)c2ccc(Cl)cc2)cc1", "Activity": 83.2}
{"molecule": "COc1ccc(S[C@@H]2C[C@@H](c3ccc(Cl)cc3)N(S(=O)(=O)c3ccccc3C)C[C@H]2C(=O)O)cc1", "Activity": 85.6}
{"molecule": "COc1ccc([C@@H]2CC=C(C(=O)O)[C@H](c3ccc(Br)cc3)N2S(=O)(=O)c2ccccc2C)cc1", "Activity": 63.7}
{"molecule": "CCCCCS[C@@H]1C[C@@H](c2ccc(Cl)cc2)N(S(=O)(=O)c2ccc(C)cc2)C[C@H]1C(=O)O", "Activity": 59.8}
{"molecule": "Cc1ccc(S[C@@H]2C[C@@H](c3ccccc3F)N(S(=O)(=O)c3ccc(C)cc3)C[C@H]2C(=O)O)cc1", "Activity": 80.4}
{"molecule": "COc1cccc([C@@H]2CC=C(C(=O)O)[C@H](c3cccc(C)c3)N2S(=O)(=O)c2ccc(C)cc2)c1", "Activity": 98.6}
{"molecule": "CCc1ccc([C@@H]2CC=C(C(=O)O)[C@H](c3cccc(C)c3)N2S(=O)(=O)c2ccc(C)cc2)cc1", "Activity": 60.5}
{"molecule": "CC(=O)C1=CC[C@@H](c2ccc(Cl)cc2)N(S(=O)(=O)c2ccccc2C)C1", "Activity": 91.9}
{"molecule": "Cc1ccc(S(=O)(=O)N2[C@@H](c3ccc(F)cc3)C(C(=O)O)=CC[C@H]2c2ccccc2)cc1", "Activity": 68.1}
{"molecule": "COc1ccc([C@@H]2C[C@@H](SC3CCCC3)[C@H](C(=O)O)CN2S(=O)(=O)c2ccccc2C)cc1", "Activity": 98.2}
{"molecule": "COc1ccc(S[C@@H]2C[C@@H](c3ccc(OC)cc3)N(S(=O)(=O)c3ccccc3C)C[C@H]2C(=O)O)cc1", "Activity": 82.2}
{"molecule": "COc1ccc([C@@H]2C[C@@H](Sc3ccc(C)cc3)[C@H](C(=O)O)CN2S(=O)(=O)c2ccc(C)cc2)cc1OC", "Activity": 105}
{"molecule": "Cc1ccc([C@@H]2C[C@@H](SCc3ccccc3)[C@H](C(=O)O)CN2S(C)(=O)=O)cc1", "Activity": 81.8}
{"molecule": "COc1ccc([C@@H]2CC=C(C(=O)O)[C@H](c3cccc(Br)c3)N2S(=O)(=O)c2ccccc2)cc1", "Activity": 58.2}
{"molecule": "COC(=O)c1ccccc1S(=O)(=O)N1[C@@H](c2ccc(C(C)(C)C)cc2)C(C(=O)O)=CC[C@H]1c1ccc(C)cc1", "Activity": 111}
{"molecule": "COc1ccc([C@@H]2CC=C(C(=O)O)[C@H](c3cccc(F)c3)N2S(=O)(=O)c2ccc(C)cc2)cc1OC", "Activity": 88.9}
{"molecule": "CCS[C@@H]1C[C@@H](c2ccc(C)cc2)N(S(=O)(=O)c2ccccc2C)C[C@H]1C(=O)O", "Activity": 83.6}
{"molecule": "CCCCS[C@@H]1C[C@@H](c2ccc(CC)cc2)N(S(=O)(=O)c2ccc(C)cc2)C[C@H]1C(=O)O", "Activity": 58.3}
{"molecule": "CC(=O)C1=CC[C@@H](c2ccc(C)cc2)N(S(=O)(=O)c2ccccc2)C1", "Activity": 99}
{"molecule": "Cc1ccc([C@@H]2C[C@@H](SCc3ccc(C(C)(C)C)cc3)[C@H](C(=O)O)CN2S(=O)(=O)c2ccccc2)cc1", "Activity": 68.1}
{"molecule": "C=CCS[C@@H]1C[C@@H](c2ccc(OCC)cc2)N(S(=O)(=O)c2ccc(C)cc2)C[C@H]1C(=O)O", "Activity": 96.7}
{"molecule": "Cc1ccc(S(=O)(=O)N2[C@@H](c3ccc(F)cc3)C(C(=O)O)=CC[C@H]2c2ccc(F)cc2)cc1", "Activity": 66.8}
{"molecule": "CCOc1ccc([C@@H]2CC=C(C(=O)O)[C@H](c3cccc(Br)c3)N2S(=O)(=O)c2ccc(C)cc2)cc1", "Activity": 78.4}
{"molecule": "Cc1ccc(S(=O)(=O)N2[C@@H](c3ccc(Cl)cc3)C(C(=O)O)=CC[C@H]2c2cccc(C)c2)cc1", "Activity": 74.7}
